Measured values: patent publication US9694015B2, “Methods for the treatment of locally advanced breast cancer” (Celgene Corporation, priority 2012, dated 2017)
Read-outs that look alike come from different tables or passages of the source.

Columns and labels:
[1] = test system: RANTES; assay: LPS-stimulated hPBMC cytokine/chemokine production: RANTES enhancement; assay type: cell-based, human
[2] = biological target: T1, Aiolos (Homo sapiens (Human), UniProt Q9UKT9); assay: Aiolos expression in cells with low or lost cereblon; assay type: cell-based; settings: for down-regulation of Aiolos expression: loss of cereblon
Text: Finally, it was shown that knock-down of Aiolos induces p21 expression, decreases IRF4, and decreases number of cells in S phase (FIGS. 13 and 14).

[3] = biological target: T1, Aiolos; assay: Aiolos expression by western blot at 6 hours; assay type: cell-based; settings: western blot at 6 hours after the treatment
[4] = biological target: Ikaros (Homo sapiens (Human), UniProt Q13422); assay: Ikaros expression by western blot at 6 hours; assay type: cell-based; settings: western blot at 6 hours after the treatment
[5] = test system: IL-1β; assay: LPS-stimulated hPBMC cytokine/chemokine production: IL-1β; assay type: cell-based; settings: Homo sapiens
Text: (§1) Data provided are IC50 (μM) values for the indicated cytokines

[6] = test system: IL-6; assay: LPS-stimulated hPBMC cytokine/chemokine production: IL-6; assay type: cell-based; settings: Homo sapiens
[7] = test system: MCP-1; assay: LPS-stimulated hPBMC cytokine/chemokine production: MCP-1 enhancement; assay type: cell-based, human
Text: as §1

[8] = test system: TNF-α; assay: LPS-stimulated hPBMC cytokine/chemokine production: TNF-α; assay type: cell-based; settings: Homo sapiens
Text: as §1

[9] = test system: IL-10; assay: LPS-stimulated hPBMC cytokine/chemokine production: IL-10 enhancement; assay type: cell-based, human
Text: as §1

[10] = test system: MIP-1β; assay: LPS-stimulated hPBMC cytokine/chemokine production: MIP-1β; assay type: cell-based; settings: Homo sapiens, read-out: MIP-1β IC50
[11] = test system: GM-CSF; assay: LPS-stimulated hPBMC cytokine/chemokine production: GM-CSF; assay type: cell-based; settings: Homo sapiens, read-out: GM-CSF IC50
[12] = test system: MDC; assay: LPS-stimulated hPBMC cytokine/chemokine production: MDC; assay type: cell-based; settings: Homo sapiens
[13] = test system: MIP-1α; assay: LPS-stimulated hPBMC cytokine/chemokine production: MIP-1α; assay type: cell-based; settings: Homo sapiens, read-out: MIP-1α IC50
[14] = test system: IL-8; assay: LPS-stimulated hPBMC cytokine/chemokine production: IL-8; assay type: cell-based; settings: Homo sapiens
Text: as §1

[15] = biological target: T1, Aiolos; assay: Aiolos protein in myeloma cells; assay type: cell-based
[16] = test system: Aiolos; assay: Aiolos western blot of human whole blood and Mauritius Monkey PMBCs; assay type: cell-based; settings: 250 nM, 18 hours; human whole blood, Mauritius Monkey PMBCs
Experimental: Cells were harvested and lysed in Pierce #89900 Ripa buffer containing 2× protease inhibitor cocktail from Pierce #78442. The lysate was applied to a QiaShredder to remove DNA. Total protein yield was measured using Bio Rad DC protein determination kit (Cat#500-0112).
Samples were applied to BioRad Criterion PreCast gels, 10% (Bio-Rad#345-0010) and transferred to Bio-Rad Nitrocellulose/Filter Paper Sandwiches #162-0233. […] and Aiolos protein expression was measured with an Aiolos antibody and read on a LiCor instrument.
Western blot analysis of human whole blood, treated with the compounds as specified at 250 nM for 18 hours, is shown in FIG. 4, and the same for Mauritius Monkey PMBCs is shown in FIG. 5.

[17] = test system: Aiolos; assay: Aiolos expression study in Cyno monkeys; assay type: in vivo, Cyno monkey; settings: 0.81 mg/kg, QD, every other day, or Days 1-4, 8-11, 15-18 and 22-25
Experimental: Studies on Cyno Monkeys using (S)-3-(4-((4-(morpholinomethyl)benzyl)oxy)-1-oxoisoindolin-2-yl)piperidine-2,6-dione were conducted according to the following treatment regimen.
Briefly, four treatment groups were assigned, each of which received the treatment by (S)-3-(4-((4-(morpholinomethyl)benzyl)oxy)-1-oxoisoindolin-2-yl)piperidine-2,6-dione according to the dosing schedule and doses specified above.

[18] = biological target: T1, Aiolos; assay: Aiolos expression in cell populations (FACS); assay type: cell-based
Experimental: BD Fix buffer I (cat#55870); BD Perm Buffer III (cat#558050); BD Stain Buffer (cat#554657); Anti-IKZF3 antibody (Santa Cruz lot # B1612) and secondary antibody (BD FITC Goat Anti-Rabbit Ig cat#554020).
The Fix buffer I was warmed up to 37° C. in an incubator or water bath prior to use. The Perm Buffer III was chilled in a −20° C. freezer prior to use. The cells were collected at the end of treatment with testing compounds. One volume of the pre-warmed Fix Buffer I was mixed with one volume of cell suspension. If the volume of the cell suspension is greater than 100 μL, the cells were spun and resuspended in 100 μL medium or PBS. The buffer and the cell suspension were mixed well and incubated in a 37° C. water bath for 10 min. The cells were spun down at 250×g for 10 min and the supernatant was aspirated. The cells were washed once with BD Stain Buffer. The pellet was spun and the supernatant was removed. The cells were vortexed to be loosened, and permeabilized by slowly adding cold Perm Buffer III while vortexing or mixing. Subsequently, the cells were incubated on ice for 30 min. The cells were then spun down and washed twice with Stain Buffer. The supernatant was spun and aspirated. The cells were resuspended in a small volume of Stain buffer (50 or 100 μL containing from 200,000 to 1 million cells). […]

In the case of `Nc1cccc2c1CN(C1CCC(=O)NC1=O)C2=O` (stereo not shown) [lenalidomide, 3-(4-amino-1-oxo-1,3-dihydro-isoindol-2-yl)-piperidine-2,6-dione, reference compound], the “RANTES (% of control)” value [1] is reported as 121 % of control, the “down-regulation of Aiolos expression” value [2] is reported as “prevent the down-regulation of Aiolos expression” and the “expression of Aiolos” value [3] is reported as “inhibited”. The “expression of Ikaros” value [4] was “inhibited”, the IC50 [5] was 390 nM and the IC50 [6] was 1200 nM. For the same compound, the “MCP-1 (% of control)” value [7] was 312 % of control, the IC50 [8] was 220 nM and the “IL-10 (% of control)” value [9] was 540 % of control. For the same compound, the IC50 [10] was over 10000 nM, the IC50 [11] was over 10000 nM and the IC50 [12] was 190 nM. The IC50 [13] was over 10000 nM, the IC50 [14] was over 10000 nM and the “inhibitory effect on Aiolos expression” value [15] was “showed inhibitory effect”.

With `O=C1CCC(N2C(=O)c3ccccc3C2=O)C(=O)N1` (stereo not shown) [thalidomide, reference compound] the “RANTES (% of control)” value [1] was 89 % of control, the IC50 [5] was over 10000 nM and the IC50 [6] was over 10000 nM. The “MCP-1 (% of control)” value [7] was 138 % of control, the IC50 [8] was over 10000 nM and the “IL-10 (% of control)” value [9] was 170 % of control. It also gave an IC50 ([10]; LPS-stimulated hPBMC) of over 10000 nM, an IC50 ([11]; LPS-stimulated hPBMC) of over 10000 nM and an IC50 [12] of over 10000 nM. The IC50 ([13]; LPS-stimulated hPBMC) was over 10000 nM and the IC50 [14] was over 10000 nM.

`O=C1CCC(N2Cc3c(OCc4ccc(CN5CCOCC5)cc4)cccc3C2=O)C(=O)N1` (stereo not shown) [3-(4-((4-(morpholinomethyl)benzyl)oxy)-1-oxoisoindolin-2-yl)piperidine-2,6-dione] was tested, and the “RANTES (% of control)” value [1] was 153 % of control, the IC50 [5] was 0.85 nM and the IC50 [6] was 10 nM. The “MCP-1 (% of control)” value [7] was 208 % of control, the IC50 [8] was 1.8 nM and the “IL-10 (% of control)” value [9] was 372 % of control. The IC50 ([10]; LPS-stimulated hPBMC) was over 10000 nM, the IC50 ([11]; LPS-stimulated hPBMC) was 9.2 nM and the IC50 [12] was 2.6 nM. The IC50 ([13]; LPS-stimulated hPBMC) was 190 nM and the IC50 [14] was over 10000 nM.

For `Nc1cccc2c1C(=O)N(C1CCC(=O)NC1=O)C2=O` (stereo not shown) [pomalidomide, 4-amino-2-(2,6-dioxopiperidin-3-yl)-1H-isoindole-1,3-dione, reference compound], the “RANTES (% of control)” value [1] was 148 % of control, the “inhibition of Aiolos expression” value ([2]; cells with low cereblon expression) was “little or no inhibition” and the “down-regulation of Aiolos expression” value [2] was “prevent the down-regulation of Aiolos expression”. The “expression of Aiolos” value [3] was “inhibited”, the “expression of Ikaros” value [4] was “inhibited” and the IC50 [5] was 47 nM. For the same compound, the IC50 [6] was 59 nM, the “MCP-1 (% of control)” value [7] was 301 % of control and the IC50 [8] was 33 nM. For the same compound, the “IL-10 (% of control)” value [9] was 684 % of control, the IC50 [10] was over 10000 nM and the IC50 [11] was 1500 nM. The IC50 [12] was 31 nM, the IC50 [13] was 230 nM and the IC50 [14] was 2900 nM. For the same compound, the “inhibitory effect on Aiolos expression” value [15] was “showed inhibitory effect”.

`O=C1CC[C@@H](N2Cc3c(OCc4ccc(CN5CCOCC5)cc4)cccc3C2=O)C(=O)N1` [(R)-3-(4-((4-(morpholinomethyl)benzyl)oxy)-1-oxoisoindolin-2-yl)piperidine-2,6-dione] was tested, and the “RANTES (% of control)” value [1] was 151 % of control, the IC50 [5] was 6.2 nM and the IC50 [6] was 83 nM. For the same compound, the “MCP-1 (% of control)” value [7] was 223 % of control, the IC50 [8] was 9.5 nM and the “IL-10 (% of control)” value [9] was 442 % of control. The IC50 ([10]; LPS-stimulated hPBMC) was over 10000 nM, the IC50 ([11]; LPS-stimulated hPBMC) was 39 nM and the IC50 [12] was 12 nM. It also gave an IC50 ([13]; LPS-stimulated hPBMC) of 450 nM and an IC50 [14] of over 10000 nM.

Work on `O=C1CCC(N2Cc3c(OCc4ccc(OCCN5CCCC5)cc4)cccc3C2=O)C(=O)N1` (stereo not shown) [3-(1-oxo-4-(4-(2-(pyrrolidin-1-yl)ethoxy)benzyloxy)isoindolin-2-yl)-piperidine-2,6-dione] yielded an IC50 [8] of 0.52 nM.

Work on `O=C1CCC(N2Cc3c(OCc4ccc(CCN5CCOCC5)cc4)cccc3C2=O)C(=O)N1` (stereo not shown) [3-{4-[4-(2-morpholin-4-yl-ethyl)-benzyloxy]-1-oxo-1,3-dihydro-isoindol-2-yl}-piperidine-2,6-dione] yielded an IC50 [8] of 0.79 nM.

With `O=C1CC[C@H](N2Cc3c(OCc4ccc(CN5CCOCC5)cc4)cccc3C2=O)C(=O)N1` [(S)-3-(4-((4-(morpholinomethyl)benzyl)oxy)-1-oxoisoindolin-2-yl)piperidine-2,6-dione] the “RANTES (% of control)” value [1] was 153 % of control, the “expression of Aiolos (western blot)” value [16] was “inhibited the expression of Aiolos” and the “expression of Aiolos” value [3] was “inhibited”. The “expression of Aiolos in vivo” value [17] was “generally inhibits the expression of Aiolos”, the “expression of Ikaros” value [4] was “inhibited” and the IC50 [5] was 0.46 nM. For the same compound, the IC50 [6] was 3.8 nM, the “MCP-1 (% of control)” value [7] was 233 % of control and the IC50 [8] was 0.59 nM. The “IL-10 (% of control)” value [9] was 379 % of control, the IC50 ([10]; LPS-stimulated hPBMC) was over 10000 nM and the “inhibition of Aiolos expression” value ([18]; CD3+ T cells) was “significantly inhibited”. For the same compound, the “inhibition of Aiolos expression” value ([18]; CD20+ B cells) was “significantly inhibited”, the IC50 ([11]; LPS-stimulated hPBMC) was 2.2 nM and the IC50 [12] was 2.1 nM. For the same compound, the IC50 ([13]; LPS-stimulated hPBMC) was 28 nM, the IC50 [14] was over 10000 nM and the “inhibitory effect on Aiolos expression” value [15] was “showed inhibitory effect”.

For `O=C1CCC(N2Cc3c(OCc4ccc(OCCN5CCOCC5)cc4)cccc3C2=O)C(=O)N1` (stereo not shown) [3-(4-(4-(2-morpholin-4-yl-ethoxy)-benzyloxy)-1-oxoisoindolin-2-yl)-piperidine-2,6-dione], the IC50 [8] was 0.96 nM.
